Here are results for 1 compound from US5571518A, “Cosmetic compositions containing tricholine citrate” (priority 1995, dated 1996).

Holding throughout (assay type): cell-based
Assay [1] deals with human keratinocytes. The experiment in a line: 3H choline incorporation into phospholipids of keratinocytes. As to the method: (§1) Human keratinocytes, isolated from neonatal foreskin by trypsin treatment were grown in Dulbecco Modification Eagle (DME) Hams F12 (3:1) medium/5% fetal calf serum in the presence of mitomycin C treated 3T3 mouse fibroblasts for establishing dividing keratinocyte colonies. Cells were grown under the above condition until their second passage and kept frozen for future use. Frozen second passage keratinocytes were thawed and plated into the above medium and grown for five days. On day 5, when the cells were 70-80% confluent, they were trypsinized and plated in the serum-free medium for the various experiments.
Choline acts as an essential nutrient for the cellular phospholipid biosynthesis of keratinocytes. Choline present in the medium is used up by the cells for phospholipid biosynthesis. If TCC provides choline for the cells it will complete with the choline in the medium for incorporation into cellular phospholipids. When cells are incubated with ^3 H-labelled choline, its incorporation into phospholipids will be decreased by the presence of unlabelled choline or TCC in the medium.
[…] The wells were washed, total lipids were extracted using Bleigh Dyer method as described above and the total counts in the chloroform phase was determined. To ascertain that the counts are present only in the phospholipid fraction, the amount of ^3 H choline incorporated into the different lipid fractions were quantitated by running TLC of the fractions in the above solvent system, and the amount of radioactivity in the phospholipid fraction (origin) was quantitated using BioScan plate reader. The cpm of ^3 H choline was plotted against the amount of cold choline or TCC added in the medium to assess the competition between choline supplied from TCC with ^3 H choline.
The amount of ^3 H choline incorporated into cellular phospholipids was determined and expressed as % of controls.

The test system of assay [2] is human keratinocytes. Nature of the assay: Cornified envelope (CE) formation, marker of terminal differentiation of keratinocytes. How it is done:
as §1
During the process of terminal differentiation in the epidermis, a 15 nm thick layer of protein, known as the cornified envelope (CE)is formed on the inner surface of the cell periphery. The CE is composed of numerous distinct proteins which have been cross-linked together by the formation of N ^ε -(-γ-glutamyl) lysine isodipeptide bonds catalyzed by the action of at least two different transglutaminases expressed in the epidermis. Transglutaminase (TG-1) is expressed in abundance in the differentiated layers of the epidermis, especially the granular layer, but is absent in the undifferentiated basal epidermis. Thus, TG-1 is a useful marker of epidermal keratinocyte differentiation with high TG-1 levels indicating a more differentiated state. An ELISA based TG-1 assay, using a TG-1 antibody, was used to assess the state of differentiation of the cultured keratinocytes in the examples that follow.
Proper skin conditioning require enhanced proliferation and differentiation of epidermal keratinocytes. The different citrate esters were tested on their effect on cornified envelope (CE) formation, a marker of terminal differentiation of keratinocytes. Citrate esters were tested at 1 mM levels in medium containing 0.15 mM Ca. Levels are expressed as % of control ±SD. The CE formation for the control was 54.48 ±31.8 cpm/μg cell protein.

The test system of assay [3] is human keratinocytes. Nature of the assay: DNA synthesis in keratinocytes (3H-thymidine incorporation, keratinocyte proliferation). The source says:
The incorporation of ^3 H-thymidine by cultured keratinocytes was used as an assay of keratinocyte proliferation. Thymidine is one of four deoxynucleosides which are the monomeric units of DNA, the universal library of genetic information in the animal kingdom. Prior to cell division of a somatic cell such as a keratinocyte, the complete genome of the cell undergoing cell division is replicated. This involves large scale DNA synthesis by the cell and enables both daughter cells to receive identical copies of the genetic material. When ^3 H-thymidine is included in the culture media of keratinocytes which are synthesizing DNA in preparation for cell division then the labelled nucleoside is incorporated into the newly synthesized DNA. The extent of incorporation of ^3 H-thymidine into a population of cells is proportional to the rate of DNA synthesis by this population of cells and therefore an indication of their cellular proliferation.
1. Normal human keratinocytes isolated from neonatal foreskins by trypsin treatment were grown in DME medium/5% fetal calf serum in the presence of mitomycin C treated 3T3 mouse fibroblasts for establishing dividing keratinocyte colonies. Keratinocytes were grown under the above condition until their third passage.
2. For the experiments, third passage keratinocytes were plated into a serum-free keratinocyte growth medium (KGM; obtained from Clonetics, San Diego, Calif.) containing 0.09 mM calcium. 20,000 to 30,000 cells were plated into each well of 24 well cell culture plates and grown for 5 days, until the cells reach about 80% confluence.
3. Medium was changed to fresh medium and the various test materials were added to the medium from an ethanolic stock solution. The final ethanol concentration in the cultures was kept below 0.2%. Control cultures received no tested material but were dosed with 0.2% ethanol. Each compound or combination was tested in three separate wells. In four hours, 1 uCi of ^3 H-thymidine (Amersham Corp., Sp activity 40 Ci/mmol) was added to the 1 ml medium in each well. The cells were incubated overnight and 24 hours later the amount of ^3 H-thymidine associated with the cellular DNA of keratinocytes was assessed as described below.
4. The medium was aspirated, and the wells washed with 1 ml phosphate-buffered saline. The DNA and proteins of the cells in the plate were then precipitated by adding 1 ml of ice-cold 10% trichloroacetic acid (TCA). The plates were left on ice for 30 minutes to complete the precipitation process. TCA was then aspirated and each well was then washed four times with 5% TCA. The plates were then dried on a filter pad and the cells in the wells were dissolved in 0.5 ml of 0.1N sodium hydroxide. The sodium hydroxide was then neutralized using 0.1N hydrochloric acid and the solution (1 ml total volume) was then transferred to a scintillation vial. 50 μl samples from each vial were used for protein assay using BCA protein assay reagent obtained from Pierce Chemical Company. 8 ml of a scintillation fluid (Ecolume) was added to the rest of the solution in the vial, and the vials were counted in a scintillation counter to determine the amount of radioactivity in each vial. The DNA synthesis rate was then calculated as cpm ^3 H thymidine incorporated into total cellular DNA/microgram of cell protein for each individual well.

Where [4] appears, read: Homo sapiens, Keratinocyte, 48 h, read-out: 3H choline incorporated into cellular phospholipids.
Where [5] appears, read: Homo sapiens, Keratinocyte, 24 h, read-out: Rate of DNA synthesis.

Regarding `O=C(O)CC(O)(CC(=O)O)C(=O)O` [Citric acid, citric acid], the “choline incorporation into phospholipid fraction, result in words” value in the assay with human keratinocytes [1] (48 hours) is on record as “no significant effect on choline incorporation into phospholipid fraction”. In addition, in the assay with human keratinocytes [1] (setting [4]), the activity at 10 µM was found to be 91.4 ± 12.7%, the activity at 100 µM was 77.5 ± 19.5% and the activity at 1000 µM is 74.1 ± 28.8%. In the assay with human keratinocytes [2] (1 mM, 0.15 mM Ca), the “cornified envelope formation / keratinocyte differentiation, result in words” value was “inhibited cornified envelope formation significantly”. For the same compound, the activity at 1000 µM in the assay with human keratinocytes [2] (Homo sapiens, Keratinocyte, read-out: CE Levels) worked out at 13.7 ± 1.1%. Moreover, the “keratinocyte differentiation, result in words” value in the assay with human keratinocytes [2] (summary of Example 2) was “inhibit both proliferation and differentiation of keratinocytes”. For the same compound, in the assay with human keratinocytes [3] (setting [5]), the activity at 0.1 µM is 88.4 ± 15.5%, the activity at 1 µM turned out to be 74.5 ± 32.2%, the activity at 10 µM came out at 89.9 ± 20.3% and the activity at 100 µM was 88.7 ± 5.1%. Further, in the assay with human keratinocytes [3] (setting [5]), the activity at 1000 µM came out at 63.9 ± 11.8% and the activity at 10000 µM is 4.25 ± 2.2%. In the assay on human keratinocytes [3] (summary in Example 2), the “keratinocyte proliferation, result in words” value was “inhibit both proliferation and differentiation of keratinocytes”.
